In ChEMBL document CHEMBL1201862, “PubChem BioAssay data set” (2004):
Several values for one entry are separate records, joined by “and”; a condition that tells them apart may be missing. Equal entries are not always repeated.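 In this assay, cells in 96-well plates receive the compound at five concentrations for 48 hours. Endpoints are linearly interpolated between the surrounding concentrations. At the GI50, growth is halved.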 Activity calls are given as the source filed them. Rule as the data show it: active = GI50 up to about 1.1 µM and inactive = higher.

Key:
Assay in all cases: NCI-60 cell line screen, 48 h
LOX IMVI = system: LOX IMVI
OVCAR-5 = system: OVCAR-5
DU-145 = system: DU-145
HOP-62 = system: HOP-62
KM12 = system: KM12
NCI-H23 = system: NCI-H23
786-0 = system: 786-0
UO-31 = system: UO-31
SK-MEL-5 = system: SK-MEL-5
A498 = system: A498
Hs-578T = system: Hs-578T
HCT-15 = system: HCT-15
RPMI-8226 = system: RPMI-8226
HOP-92 = system: HOP-92
SK-MEL-28 = system: SK-MEL-28
MDA-MB-435 = system: MDA-MB-435
ACHN = system: ACHN
OVCAR-8 = system: OVCAR-8
SW-620 = system: SW-620
SK-MEL-2 = system: SK-MEL-2
SF-539 = system: SF-539
CCRF-CEM = system: CCRF-CEM
U-251 = system: U-251
HL-60 = system: HL-60
EKVX = system: EKVX
NCI-H460 = system: NCI-H460
SK-OV-3 = system: SK-OV-3
A549 = system: A549
OVCAR-3 = system: OVCAR-3
UACC-62 = system: UACC-62
UACC-257 = system: UACC-257
PC-3 = system: PC-3
HCC 2998 = system: HCC 2998
Malme-3M = system: Malme-3M
SNB-75 = system: SNB-75
SR = system: SR
MOLT-4 = system: MOLT-4
SNB-19 = system: SNB-19
OVCAR-4 = system: OVCAR-4
SF-268 = system: SF-268
TK-10 = system: TK-10
SN12C = system: SN12C
HT-29 = system: HT-29
COLO 205 = system: COLO 205
T47D = system: T47D
MDA-N = system: MDA-N
NCI/ADR-RES = system: NCI/ADR-RES
MCF7 = system: MCF7
MDA-MB-231 = system: MDA-MB-231
M14 = system: M14
NCI-H226 = system: NCI-H226
K562 = system: K562
SF-295 = system: SF-295
HCT-116 = system: HCT-116
NCI-H522 = system: NCI-H522
IGROV-1 = system: IGROV-1
CAKI-1 = system: CAKI-1

Measured: GI50

CN(C)c1ccc(/C=C/c2ccnc3ccccc23)cc1N
active: HOP-92 337 nM | T47D 0.547 µM
inactive: LOX IMVI 7.41 µM | OVCAR-5 13.7 µM | DU-145 10.4 µM | HOP-62 13.8 µM | KM12 7.85 µM | NCI-H23 5.68 µM | 786-0 12.6 µM | UO-31 7.55 µM | SK-MEL-5 2.82 µM | A498 10.4 µM | Hs-578T 15.3 µM | RPMI-8226 2.52 µM | SK-MEL-28 13 µM | MDA-MB-435 2.55 µM | ACHN 10.3 µM | OVCAR-8 8.85 µM | SW-620 12.4 µM | SK-MEL-2 8.65 µM | SF-539 14.7 µM | CCRF-CEM 3 µM | U-251 9.66 µM | HL-60 3.52 µM | EKVX 4.72 µM | NCI-H460 8.24 µM | SK-OV-3 15.2 µM | A549 6.81 µM | OVCAR-3 2.32 µM | UACC-62 12.1 µM | UACC-257 2.42 µM | PC-3 4.35 µM | HCC 2998 10.1 µM | Malme-3M 10.9 µM | SNB-75 6.5 µM | SR 2.21 µM | MOLT-4 5.64 µM | SNB-19 14.4 µM | OVCAR-4 10.5 µM | SF-268 9.73 µM | TK-10 5.16 µM | SN12C 14.8 µM | HT-29 4.49 µM | COLO 205 2.53 µM | MDA-N 3.1 µM | NCI/ADR-RES 13.1 µM | MCF7 1.57 µM | MDA-MB-231 4.04 µM | M14 10.6 µM | NCI-H226 11.4 µM | K562 3.98 µM | SF-295 11 µM
6.24 µM: HCT-15

O=[N+]([O-])c1ccc(/N=N/c2c(O)ccc3ccccc23)cc1
inactive: HCT-116 > 100 µM | LOX IMVI > 100 µM | OVCAR-5 > 100 µM and 65.2 µM | DU-145 > 100 µM | 786-0 > 100 µM | UO-31 > 100 µM and 98.4 µM | SK-MEL-5 > 100 µM | A498 > 100 µM | RPMI-8226 > 100 µM | SK-MEL-28 > 100 µM | MDA-MB-435 > 100 µM | SW-620 > 100 µM | SK-MEL-2 84.9 µM | IGROV-1 19.4 µM and > 32 µM | SF-539 > 100 µM | NCI-H460 > 100 µM | OVCAR-3 50.5 µM | UACC-257 > 100 µM | PC-3 73.5 µM | HCC 2998 > 100 µM | SR > 22.2 µM and 21.2 µM | MOLT-4 95.1 µM | SNB-19 > 100 µM | SN12C > 100 µM | COLO 205 > 100 µM | T47D > 100 µM | MDA-N > 100 µM | MCF7 > 100 µM | MDA-MB-231 > 100 µM | CAKI-1 > 100 µM | K562 > 100 µM
active: NCI-H522 293 nM
> 100 µM: HCT-15

N#Cc1ccc(-c2ccc(Cl)cc2)n(C2OC(CO)C(O)C(O)C2O)c1=S (configuration not stated)
inactive: HCT-116 > 100 µM and 86.1 µM | LOX IMVI > 100 µM | OVCAR-5 > 100 µM | DU-145 > 100 µM | KM12 > 100 µM | UO-31 > 100 µM | SK-MEL-5 > 100 µM and 98.6 µM | Hs-578T > 100 µM | RPMI-8226 > 100 µM | SK-MEL-28 > 100 µM | ACHN > 100 µM | OVCAR-8 > 100 µM | SW-620 > 100 µM | SF-539 > 100 µM | HL-60 > 100 µM | NCI-H460 > 100 µM and 86.5 µM | A549 > 100 µM | OVCAR-3 > 100 µM | UACC-257 > 100 µM | PC-3 > 100 µM | HCC 2998 > 100 µM | Malme-3M > 100 µM | SR > 100 µM | MOLT-4 > 100 µM | OVCAR-4 > 100 µM | SN12C > 100 µM | HT-29 > 100 µM | T47D > 100 µM | MDA-N > 100 µM | MCF7 62.4 µM | MDA-MB-231 > 100 µM | M14 > 100 µM | CAKI-1 > 100 µM | NCI-H226 > 100 µM | K562 > 100 µM
> 100 µM: HCT-15
